pIC50: −log10 of the molar value.
Test system: 233499-124-R-J3-PDC spheroids with HUVEC/MSC, viability
Test: Anticancer human tumor 233499-124-R-J3-PDC patient-derived colon adenocarcinoma cell line growth inhibition [PI3K]
Conditions: for viability, T/C: stronger effect = lower value
Method in brief: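 Tumor cells were combined with HUVEC and MSCs into spheroids, then dosed with PI3K-inhibitor combinations over half-log ranges capped near clinical Cmax or 10 microM.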
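Also: spheroids exposed to agents for seven days before readout.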
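For viability, T/C in this document: percent viability relative to DMSO vehicle control taken as 100%.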

CNC(=O)c1ccc(N2C(=S)N(c3ccc(C#N)c(C(F)(F)F)c3)C(=O)C2(C)C)cc1F + COc1c(OCCCN2CCOCC2)ccc2c3n(c(=NC(=O)c4cnc(N)nc4)nc12)CCN3
pIC50 (curve of first compound, second compound 0.00316 µM): < 5.00 | pIC50 (curve of first compound, second compound 0.01 µM): < 5.00 | pIC50 (curve of first compound, second compound 0.0316 µM): < 5.00 | pIC50 (curve of first compound, second compound 0.1 µM): 5.39 | pIC50 (curve of first compound, second compound 0.316 µM): > 7.50 | pIC50 (curve of first compound, second compound 1 µM): > 7.50 | viability, T/C (second compound 0.00316 µM, first compound 0.0316 µM): 93.8% | viability, T/C (second compound 0.00316 µM, first compound 0.1 µM): 97.3% | viability, T/C (second compound 0.00316 µM, first compound 0.316 µM): 97.2% | viability, T/C (second compound 0.00316 µM, first compound 1 µM): 81.9% | viability, T/C (second compound 0.00316 µM, first compound 3.16 µM): 65.7% | viability, T/C (second compound 0.00316 µM, first compound 10 µM): 54.3% | viability, T/C (second compound 0.01 µM, first compound 0.0316 µM): 88.1% | viability, T/C (second compound 0.01 µM, first compound 0.1 µM): 105% | viability, T/C (second compound 0.01 µM, first compound 0.316 µM): 99% | viability, T/C (second compound 0.01 µM, first compound 1 µM): 87.7% | viability, T/C (second compound 0.01 µM, first compound 3.16 µM): 89.9% | viability, T/C (second compound 0.01 µM, first compound 10 µM): 60.1% | viability, T/C (second compound 0.0316 µM, first compound 0.0316 µM): 101% | viability, T/C (second compound 0.0316 µM, first compound 0.1 µM): 85.3% | viability, T/C (second compound 0.0316 µM, first compound 0.316 µM): 98.3% | viability, T/C (second compound 0.0316 µM, first compound 1 µM): 78.1% | viability, T/C (second compound 0.0316 µM, first compound 3.16 µM): 63.8% | viability, T/C (second compound 0.0316 µM, first compound 10 µM): 50.4% | viability, T/C (second compound 0.1 µM, first compound 0.0316 µM): 84% | viability, T/C (second compound 0.1 µM, first compound 0.1 µM): 53.8% | viability, T/C (second compound 0.1 µM, first compound 0.316 µM): 75.2% | viability, T/C (second compound 0.1 µM, first compound 1 µM): 64.2% | viability, T/C (second compound 0.1 µM, first compound 3.16 µM): 47.4% | viability, T/C (second compound 0.1 µM, first compound 10 µM): 44% | viability, T/C (second compound 0.316 µM, first compound 0.0316 µM): 33% | viability, T/C (second compound 0.316 µM, first compound 0.1 µM): 30.5% | viability, T/C (second compound 0.316 µM, first compound 0.316 µM): 44.1% | viability, T/C (second compound 0.316 µM, first compound 1 µM): 32.3% | viability, T/C (second compound 0.316 µM, first compound 3.16 µM): 30.7% | viability, T/C (second compound 0.316 µM, first compound 10 µM): 12.1% | viability, T/C (second compound 1 µM, first compound 0.0316 µM): 10% | viability, T/C (second compound 1 µM, first compound 0.1 µM): 24.7% | viability, T/C (second compound 1 µM, first compound 0.316 µM): 6.89% | viability, T/C (second compound 1 µM, first compound 1 µM): 5.24% | viability, T/C (second compound 1 µM, first compound 3.16 µM): 10.3% | viability, T/C (second compound 1 µM, first compound 10 µM): 4.27%

CC(Nc1ncnc2nc[nH]c12)c1cc2cccc(Cl)c2c(=O)n1-c1ccccc1 (centres undefined)
viability, T/C (compound 0.0316 µM): 93.9% [middle of 8 runs] | viability, T/C (compound 0.1 µM): 97.2% [middle of 8 runs] | viability, T/C (compound 0.316 µM): 95.8% [middle of 8 runs] | viability, T/C (compound 1 µM): 103% [middle of 8 runs] | viability, T/C (compound 3.16 µM): 100% [middle of 8 runs] | viability, T/C (compound 10 µM): 89.7% [middle of 8 runs] | pIC50 (compound alone, run of 05/09/2023): < 5.00

Reference: PubChem BioAssay AID1963984 (Molecular Pharmacology Branch, DTP, NCI, 2024)
